PubChem BioAssay AID1259411 (Chemical Carcinogenesis Research Information System (CCRIS), 2018)
Activity calls are given as the source filed them. No rule for the calls is given here.

Tested on: rodent carcinogenicity bioassays, tumor incidence
Assay: CCRIS carcinogenicity studies
Conditions: Dose: 0, Dose: 0
Description: The CCRIS database contains chemical records with carcinogenicity, mutagenicity, tumor promotion, and tumor inhibition test results. It was developed by the National Cancer Institute (NCI). Data are derived from studies cited in primary journals, current awareness tools, NCI reports, and other sources. Test results have been reviewed by experts in carcinogenesis and mutagenesis.
CCRIS provides historical information from the years 1985 - 2011. It is no longer updated.
This is an archive assay for CCRIS carcinogenicity studies.

Row | SMILES | carcinogen call (Species: Mouse, Strain/Sex: CD-1[Crl(ICR)BR]/Female (55/Group), Route: Oral, 1750, 3500, 7000 ppm of 96.9% imazapic in diet for 18 mo, study duration 18 mo, 1750, 3500, 7000 ppm of 96.9% imazapic in diet for 18 mo, study duration 18 mo) | carcinogen call (Species: Mouse, Strain/Sex: CD-1[Crl(ICR)BR]/Male (55/Group), Route: Oral, 1750, 3500, 7000 ppm of 96.9% imazapic in diet for 18 mo, study duration 18 mo, 1750, 3500, 7000 ppm of 96.9% imazapic in diet for 18 mo, study duration 18 mo) | carcinogen call (Species: Rat, Strain/Sex: Crl:CD(SD)BR/Female (55/Group), Route: Oral, 5000, 10,000, 20,000 ppm of 96.4% imazapic in diet for 24 mo, study duration 24 mo, 5000, 10,000, 20,000 ppm of 96.4% imazapic in diet for 24 mo, study duration 24 mo) | carcinogen call (Species: Rat, Strain/Sex: Crl:CD(SD)BR/Male (55/Group), Route: Oral, 5000, 10,000, 20,000 ppm of 96.4% imazapic in diet for 24 mo, study duration 24 mo, 5000, 10,000, 20,000 ppm of 96.4% imazapic in diet for 24 mo, study duration 24 mo) | carcinogen call (Species: HAMSTER, Strain/Sex: SYRIAN/FEMALE, Route: GAVAGE, 6.2 MG/KG 1/WK FOR 50 WK (TOTAL DOSE: 0; 2.1 MMOL) (STUDY DURATION: LIFETIME), 6.2 MG/KG 1/WK FOR 50 WK (TOTAL DOSE: 0; 2.1 MMOL) (STUDY DURATION: LIFETIME), Tumor Site: Type of Lesion: LIVER: CHOLANGIOMA, LUNG: ALVEOLAR/BRONCHIAL CARCINOMA, ALVEOLAR/BRONCHIAL ADENOMA, URINARY BLADDER: TRANSITIONAL CELL C, Tumor Site: Type of Lesion: LIVER: CHOLANGIOMA, LUNG: ALVEOLAR/BRONCHIAL CARCINOMA, ALVEOLAR/BRONCHIAL ADENOMA, URINARY BLADDER: TRANSITIONAL CELL C) | carcinogen call (Species: HAMSTER, Strain/Sex: SYRIAN/MALE, Route: GAVAGE, 6.2 MG/KG 1/WK FOR 50 WK (TOTAL DOSE: 0; 2.1 MMOL) (STUDY DURATION: LIFETIME), 6.2 MG/KG 1/WK FOR 50 WK (TOTAL DOSE: 0; 2.1 MMOL) (STUDY DURATION: LIFETIME), Tumor Site: Type of Lesion: LIVER: HEPATOCELLULAR ADENOMA, CHOLANGIOMA, HEMANGIOSARCOMA, LUNG: ALVEOLAR/ BRONCHIAL ADENOMA, NASAL MUCOSA: CARCINOMA,, Tumor Site: Type of Lesion: LIVER: HEPATOCELLULAR ADENOMA, CHOLANGIOMA, HEMANGIOSARCOMA, LUNG: ALVEOLAR/ BRONCHIAL ADENOMA, NASAL MUCOSA: CARCINOMA) | carcinogen call (Species: RAT, Strain/Sex: F344/FEMALE, Route: INTRAVESICULAR, 3.75 MG IN 0.4 ML ETHANOL: DEIONIZED WATER (1:3) 2/WK FOR 30 WK (TOTAL DOSE 1.6 MMOL) (STUDY DURATION: LIFESPAN), Tumor Site: Type of Lesion: BLADDER: TUMOR, LUNG: SQUAMOUS CELL CARCINOMA, UTERUS: TUMOR, Tumor Site: Type of Lesion: BLADDER: TUMOR, LUNG: SQUAMOUS CELL CARCINOMA, UTERUS: TUMOR)
1 | Cc1cnc(C2=NC(C)(C(C)C)C(=O)N2)c(C(=O)O)c1 (configuration not stated) | inactive; negative | inactive; negative | inactive; negative | inactive; negative | – | – | –
2 | CCCCCCN(C)N=O | – | – | – | – | active; positive | active; positive | active; positive
